Laboratory results as given in patent US20250154115A1, “ARYLBENZOISOXAZOLE COMPOUNDS AS IP6K AND IPMK INHIBITORS AND METHODS OF USE THEREOF” (THE UNIVERSITY OF NORTH CAROLINA AT CHAPEL HILL, priority 2022, published 2025).
Blank lines part the entries; values can stand above or below the compound they belong to.

Legend:
Format in all cases: biochemical
IP6K2 = IP6K2 (Homo sapiens (Human), UniProt Q9UHH9); assay: Enzyme-coupled assay of IP6K2 activity (Dipp1-coupled, malachite green Pi release)
Experimental: (§1) […] The cells were disrupted using a constant cell disruption system (Constant Systems) under 20 kPsi.
(§2) Pi release was determined with a malachite green colorimetric assay.^45 Where indicated, TNP (Cayman Chemical) was added to the assays (FIG. 2A-E).

IP6K1 = IP6K1 (Homo sapiens (Human), UniProt Q92551); assay: Enzyme-coupled assay of IP6K1 activity (Dipp1-coupled, malachite green Pi release)
Experimental: as §1, §2

IPMK = IPMK (Homo sapiens (Human), UniProt Q8NFU5); assay: Enzyme-coupled assay, IPMK IC50
[1] = determined from enzyme-coupled assays

Chain of IP6K2 (Q9UHH9 whole entry): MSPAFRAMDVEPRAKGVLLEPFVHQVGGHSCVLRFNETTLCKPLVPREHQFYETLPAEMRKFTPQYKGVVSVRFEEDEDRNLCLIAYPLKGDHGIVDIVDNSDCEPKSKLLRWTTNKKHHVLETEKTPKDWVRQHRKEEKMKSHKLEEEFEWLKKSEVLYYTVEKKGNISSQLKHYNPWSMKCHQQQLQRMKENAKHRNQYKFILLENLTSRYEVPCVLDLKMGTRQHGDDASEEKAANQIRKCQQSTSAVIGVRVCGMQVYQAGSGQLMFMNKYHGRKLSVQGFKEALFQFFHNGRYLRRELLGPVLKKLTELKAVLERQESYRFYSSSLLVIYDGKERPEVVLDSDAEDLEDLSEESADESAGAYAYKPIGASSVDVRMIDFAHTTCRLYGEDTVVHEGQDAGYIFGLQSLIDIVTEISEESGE
Chain of IP6K1 (Q92551 whole entry): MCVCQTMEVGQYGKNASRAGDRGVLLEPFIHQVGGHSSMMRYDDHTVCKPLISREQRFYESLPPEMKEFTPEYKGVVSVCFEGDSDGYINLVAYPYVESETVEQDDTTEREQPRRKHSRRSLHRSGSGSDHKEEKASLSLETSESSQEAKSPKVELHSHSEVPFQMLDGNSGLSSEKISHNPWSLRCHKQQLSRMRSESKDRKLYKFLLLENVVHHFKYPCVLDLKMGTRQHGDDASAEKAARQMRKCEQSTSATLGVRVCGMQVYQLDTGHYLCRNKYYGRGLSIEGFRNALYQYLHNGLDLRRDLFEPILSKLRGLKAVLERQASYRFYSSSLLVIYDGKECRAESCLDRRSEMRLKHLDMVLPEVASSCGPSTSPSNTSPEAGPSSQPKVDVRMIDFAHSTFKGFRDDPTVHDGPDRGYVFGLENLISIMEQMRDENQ
Chain of IPMK (Q8NFU5 whole entry, species assumed): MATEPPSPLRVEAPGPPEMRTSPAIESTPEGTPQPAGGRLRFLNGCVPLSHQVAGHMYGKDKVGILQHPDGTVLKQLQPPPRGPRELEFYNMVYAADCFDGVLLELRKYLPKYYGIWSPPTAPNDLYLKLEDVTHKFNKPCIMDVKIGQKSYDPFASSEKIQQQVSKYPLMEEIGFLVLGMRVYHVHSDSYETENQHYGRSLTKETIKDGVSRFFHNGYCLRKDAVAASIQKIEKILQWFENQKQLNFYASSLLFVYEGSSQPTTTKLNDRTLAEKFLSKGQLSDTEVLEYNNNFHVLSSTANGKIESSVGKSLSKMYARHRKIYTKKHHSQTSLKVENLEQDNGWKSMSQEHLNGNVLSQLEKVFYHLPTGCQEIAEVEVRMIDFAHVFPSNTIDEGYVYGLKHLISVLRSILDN

- IC50 (IP6K1; enzyme-coupled assay, Table 4): 0.1 to 1 µM
SMILES: CC1(C(=O)N2CCC(c3cccc(-c4onc5ccc(-c6nnn[nH]6)cc45)c3)CC2)COC1 [Compound 108]

- IC50 (IP6K1; enzyme-coupled assay, Table 4): 0.1 to 1 µM
SMILES: CC(C)(C)OC(=O)N1CCCC1C(=O)N1CCC(c2cccc(-c3onc4ccc(-c5nnn[nH]5)cc34)c2)CC1 (stereo not shown) [Compound 116]

- IC50 (IP6K2; [1]): 0.01 to 0.1 µM
- IC50 (IP6K1; [1]): 0.01 to 0.1 µM
- IC50 (IPMK; [1]): 0.01 to 0.1 µM
SMILES: CC(C)(C)OC(=O)N1CCC(Oc2cccc(-c3onc4ccc(-c5noc(=O)[nH]5)cc34)c2)CC1 [Cmpd 128]

- IC50 (IP6K2; [1]): 0.1 to 1 µM
- IC50 (IP6K1; [1]): 0.1 to 1 µM
- IC50 (IPMK; [1]): 0.01 to 0.1 µM
SMILES: O=c1[nH]c(-c2ccc3noc(-c4cccc(OC5CCN(CC6CC6)CC5)c4)c3c2)no1 [Cmpd 132]

- IC50 (IP6K2; [1]): 0.01 to 0.1 µM
- IC50 (IP6K1; [1]): 0.1 to 1 µM
- IC50 (IPMK; [1]): 0.1 to 1 µM
SMILES: CC1(C(=O)N2CCC(Oc3cccc(-c4onc5ccc(-c6noc(=O)[nH]6)cc45)c3)CC2)COC1 [Cmpd 139]

- IC50 (IP6K2; enzyme-coupled assay, Table 4): 0.01 to 0.1 µM
- IC50 (IP6K1; enzyme-coupled assay, Table 4): 0.01 to 0.1 µM
- IC50 (IPMK; enzyme-coupled assay, Table 4): 0.01 to 0.1 µM
SMILES: CC(C)N1CCC(Oc2cccc(-c3onc4ccc(-c5nnn[nH]5)cc34)c2)CC1 [Compound 87]

- IC50 (IP6K2; [1]): < 0.01 µM
- IC50 (IP6K1; [1]): < 0.01 µM
- IC50 (IPMK; [1]): 0.01 to 0.1 µM
SMILES: O=C(Nc1ccc(-c2onc3ccc(-c4noc(=O)[nH]4)cc23)cc1)C1CCCC1 [Cmpd 130]

- IC50 (IP6K2; [1]): 0.01 to 0.1 µM
- IC50 (IP6K1; [1]): 0.1 to 1 µM
- IC50 (IPMK; [1]): 0.01 to 0.1 µM
SMILES: O=C(C1CC1)N1CCC(Oc2cccc(-c3onc4ccc(-c5noc(=O)[nH]5)cc34)c2)CC1 [Cmpd 138]

- IC50 (IP6K2; [1]): 0.01 to 0.1 µM
- IC50 (IP6K1; [1]): 0.01 to 0.1 µM
- IC50 (IPMK; [1]): < 0.01 µM
SMILES: O=c1[nH]c(-c2ccc3noc(-c4cccc(OC5CCNCC5)c4)c3c2)no1 [Cmpd 129]

- IC50 (IP6K2; enzyme-coupled assay, Table 4): 0.01 to 0.1 µM
- IC50 (IP6K1; enzyme-coupled assay, Table 4): 0.01 to 0.1 µM
- IC50 (IPMK; enzyme-coupled assay, Table 4): < 0.01 µM
SMILES: O=C(C1CC1)N1CCC(Oc2cccc(-c3onc4ccc(-c5nnn[nH]5)cc34)c2)CC1 [Compound 89]

- IC50 (IP6K2; [1]): 0.1 to 1 µM
- IC50 (IP6K1; [1]): 0.1 to 1 µM
- IC50 (IPMK; [1]): 0.01 to 0.1 µM
SMILES: O=C(Nc1ccc(-c2onc3ccc(-c4noc(=O)[nH]4)cc23)cc1)[C@@H]1CCCN1 [Cmpd 136]

- IC50 (IP6K2; [1]): 0.1 to 1 µM
- IC50 (IP6K1; [1]): 0.1 to 1 µM
- IC50 (IPMK; [1]): 0.01 to 0.1 µM
SMILES: O=c1[nH]c(-c2ccc3noc(-c4cccc(OC5CCN(C6CCC6)CC5)c4)c3c2)no1 [Cmpd 133]

Second part, the compound before the results:

SMILES: CC(C)C(=O)Nc1cccc(-c2onc3ccc(C(=O)O)cc23)c1 [Compound 50]
- IC50 (IP6K2; enzyme-coupled assay, Table 2): 0.1 to 1 µM
- IC50 (IP6K1; enzyme-coupled assay, Table 2): 1 to 100 µM
- IC50 (IPMK; enzyme-coupled assay, Table 2): 0.1 to 1 µM

SMILES: O=C(N1CCC(c2cccc(-c3onc4ccc(-c5nnn[nH]5)cc34)c2)CC1)C1(F)CC1 [Compound 112]
- IC50 (IP6K1; enzyme-coupled assay, Table 4): 0.01 to 0.1 µM

SMILES: O=C(O)c1ccc2noc(-c3cccc(-c4cncc(O)c4)c3)c2c1 [Compound 53]
- IC50 (IP6K2; enzyme-coupled assay, Table 2): 0.1 to 1 µM
- IC50 (IP6K1; enzyme-coupled assay, Table 2): 0.1 to 1 µM

SMILES: O=C(O)c1ccc2noc(-c3cccc(-c4cccc(Cl)c4)c3)c2c1 [Compound 51]
- IC50 (IP6K2; enzyme-coupled assay, Table 2): 0.1 to 1 µM
- IC50 (IP6K1; enzyme-coupled assay, Table 2): 0.1 to 1 µM
- IC50 (IPMK; enzyme-coupled assay, Table 2): 0.01 to 0.1 µM

SMILES: CC1(C(=O)N2CCC(c3ccc(-c4onc5ccc(-c6nnn[nH]6)cc45)cc3)CC2)COC1 [Compound 121]
- IC50 (IP6K1; enzyme-coupled assay, Table 4): 0.1 to 1 µM

SMILES: COc1ccc(COc2cncc(-c3cccc(-c4onc5ccc(C(=O)O)cc45)c3)c2)cc1 [Compound 52]
- IC50 (IP6K2; enzyme-coupled assay, Table 2): 0.1 to 1 µM
- IC50 (IP6K1; enzyme-coupled assay, Table 2): 0.1 to 1 µM
- IC50 (IPMK; enzyme-coupled assay, Table 2): 0.1 to 1 µM

SMILES: c1cc2noc(-c3ccc(C4CCN(C5CCC5)CC4)cc3)c2cc1-c1nnn[nH]1 [Compound 118]
- IC50 (IP6K1; enzyme-coupled assay, Table 4): 0.01 to 0.1 µM

SMILES: O=C(Nc1ccc(-c2onc3ccc(-c4nnn[nH]4)cc23)cc1)[C@@H]1CCCN1 [Compound 100]
- IC50 (IP6K1; enzyme-coupled assay, Table 4): 0.1 to 1 µM

SMILES: CN1CCC(NC(=O)c2ccc(-c3onc4ccc(C(=O)O)cc34)cc2)CC1 [Compound 40]
- IC50 (IP6K2; enzyme-coupled assay, Table 2): 1 to 100 µM
- IC50 (IP6K1; enzyme-coupled assay, Table 2): 1 to 100 µM
- IPMK IC50 (IPMK; enzyme-coupled assay, Table 2): −

SMILES: CNC(=O)c1ccc2noc(-c3ccccc3)c2c1 [Compound 21]
- IPMK IC50 (IPMK; enzyme-coupled assay, Table 2): −

SMILES: c1cc2noc(-c3ccc(C4CCNCC4)cc3)c2cc1-c1nnn[nH]1 [Compound 117]
- IC50 (IP6K1; enzyme-coupled assay, Table 4): 0.1 to 1 µM

SMILES: O=C(Nc1ccc(-c2onc3ccc(-c4nnn[nH]4)cc23)cc1)C1CCNCC1 [Compound 99]
- IC50 (IP6K1; enzyme-coupled assay, Table 4): 0.1 to 1 µM

SMILES: Clc1ccc(-c2cccc(-c3onc4ccc(-c5nnn[nH]5)cc34)c2)c(Cl)c1 [Compound 84]
- IC50 (IP6K2; enzyme-coupled assay, Table 4): 0.01 to 0.1 µM
- IC50 (IP6K1; enzyme-coupled assay, Table 4): 0.01 to 0.1 µM
- IC50 (IPMK; enzyme-coupled assay, Table 4): 0.01 to 0.1 µM

SMILES: c1cc(-c2onc3ccc(-c4nnn[nH]4)cc23)cc(C2CCN(C3CC4(CCC4)C3)CC2)c1 [Compound 113]
- IC50 (IP6K1; enzyme-coupled assay, Table 4): 0.1 to 1 µM

SMILES: O=C(O)c1ccc2noc(-c3ccc(NC(=O)C4CCNCC4)cc3)c2c1 [Compound 48]
- IC50 (IP6K2; enzyme-coupled assay, Table 2): 1 to 100 µM
- IC50 (IP6K1; enzyme-coupled assay, Table 2): 1 to 100 µM
- IPMK IC50 (IPMK; enzyme-coupled assay, Table 2): −

SMILES: c1cc(-c2onc3ccc(-c4nnn[nH]4)cc23)cc(C2CCN(CC3CC3)CC2)c1 [Compound 107]
- IC50 (IP6K1; enzyme-coupled assay, Table 4): 0.01 to 0.1 µM

SMILES: c1cc(-c2onc3ccc(-c4nnn[nH]4)cc23)cc(C2CCNCC2)c1 [Compound 104]
- IC50 (IP6K1; enzyme-coupled assay, Table 4): 0.1 to 1 µM

SMILES: O=C(O)c1ccc2noc(-c3cccc(NC(=O)C4CCCC4)c3)c2c1 [Compound 49]
- IC50 (IP6K2; enzyme-coupled assay, Table 2): 0.1 to 1 µM
- IC50 (IP6K1; enzyme-coupled assay, Table 2): 0.1 to 1 µM
- IC50 (IPMK; enzyme-coupled assay, Table 2): 0.01 to 0.1 µM

SMILES: Nc1cccc(-c2cccc(-c3onc4ccc(-c5nnn[nH]5)cc34)c2)c1 [Compound 97]
- IC50 (IP6K2; enzyme-coupled assay, Table 4): 0.01 to 0.1 µM
- IC50 (IP6K1; enzyme-coupled assay, Table 4): 0.01 to 0.1 µM
